Among the data in ChEMBL document CHEMBL1201862, “PubChem BioAssay data set” (2004) are IC50 values, retold here.

The source made the active and inactive calls. For most assays here, no stated cut-off is given here; in the data, actives have a measured IC50 and inactives only a lower limit.

The target in one assay is T1, Bcl-2-related protein A1 (Mus musculus, UniProt Q07440).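 Further: confirmatory dose–response counterscreen on Bfl-1, used to check hits from a UBC13 polyubiquitin inhibitor campaign.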
T1 sequence (Q07440 whole entry): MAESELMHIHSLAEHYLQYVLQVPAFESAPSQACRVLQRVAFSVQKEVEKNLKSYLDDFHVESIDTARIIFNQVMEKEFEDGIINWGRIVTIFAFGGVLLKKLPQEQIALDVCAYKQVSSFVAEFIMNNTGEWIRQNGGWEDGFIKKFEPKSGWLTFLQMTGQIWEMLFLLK
It counts as functional.

In assay [1] the target is T2, Ubiquitin-conjugating enzyme E2 N (Homo sapiens, UniProt P61088).
T2 sequence (P61088 whole entry): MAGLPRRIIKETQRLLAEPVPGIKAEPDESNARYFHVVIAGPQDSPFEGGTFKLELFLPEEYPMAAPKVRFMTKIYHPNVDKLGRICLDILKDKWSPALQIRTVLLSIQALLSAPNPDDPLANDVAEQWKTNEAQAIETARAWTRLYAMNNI
It counts as functional.

The target in assay [2] is T2, Ubiquitin-conjugating enzyme E2 N. It counts as functional. The source holds these as a separate data set.
Another assay concerns the target Exodeoxyribonuclease V (Escherichia coli (strain K12), UniProt P04993+P07648+P08394). The assay can be described thus: RecBCD inhibition via phage-restricted bacterial growth – absorbance, V66 E. coli, mutant T4 phage, counter-screen for AddAB inhibitor project, dose response (AID 492957). It counts as functional, cell-based, Escherichia coli str. K-12 substr. MG1655. For orientation: Counterscreens check selectivity or assay interference.

A short description of assay [3]: Counterscreen for AddAB inhibitors: absorbance-based bacterial cell-based high throughput dose response assay for inhibitors of bacterial viability. [Related pubchem assays (depositor defined):AID435030, AID449728, AID449731, AID488942, AID488955, AID488956]. The class given is functional.
Assay [4] has as its target Glyceraldehyde-3-phosphate dehydrogenase (Homo sapiens, UniProt P04406).
Assay [5] addresses T3, Alkaline phosphatase, tissue-nonspecific isozyme (Homo sapiens, UniProt P05186).
T3 sequence (P05186 whole entry): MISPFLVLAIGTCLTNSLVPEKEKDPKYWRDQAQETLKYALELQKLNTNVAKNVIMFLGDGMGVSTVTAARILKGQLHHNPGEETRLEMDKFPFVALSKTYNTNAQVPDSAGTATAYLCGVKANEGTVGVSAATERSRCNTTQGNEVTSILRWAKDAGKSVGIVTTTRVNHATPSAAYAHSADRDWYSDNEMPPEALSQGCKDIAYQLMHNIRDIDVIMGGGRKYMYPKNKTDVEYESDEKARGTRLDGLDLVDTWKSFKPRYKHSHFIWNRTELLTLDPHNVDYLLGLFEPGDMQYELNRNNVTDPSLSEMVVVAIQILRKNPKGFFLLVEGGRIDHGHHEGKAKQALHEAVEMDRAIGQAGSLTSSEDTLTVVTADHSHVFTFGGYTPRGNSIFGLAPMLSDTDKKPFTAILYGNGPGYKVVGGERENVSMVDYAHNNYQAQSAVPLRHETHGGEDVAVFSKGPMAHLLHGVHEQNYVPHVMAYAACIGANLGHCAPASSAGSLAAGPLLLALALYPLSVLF
The assay can be described thus: potency against alkaline phosphatase TNAP – biochemical, luminescent, dose response, SAR follow-up (AID 1056).

Assay [6] addresses Intestinal-type alkaline phosphatase (Mus musculus, UniProt P24822). The assay can be described thus: PubChem AID 488785. It counts as functional.
In assay [7] the target is T3, Alkaline phosphatase, tissue-nonspecific isozyme. The assay can be described thus: TNAP enzyme inhibition by screening hits, dose response, selectivity assay for mouse IAP inhibitor project, biochemical, human TNAP, uHTS hits (AID 488906). The class given is functional.
The target of assay [8] is Intestinal-type alkaline phosphatase (Homo sapiens, UniProt P09923). The experiment in a line: inhibition of human intestinal alkaline phosphatase – biochemical, dose response (AID 488876). It counts as functional.
For assay [9], the target named is DNA dC->dU-editing enzyme APOBEC-3A (Homo sapiens, UniProt P31941). The assay can be described thus: Dose Response confirmation of small molecule APOBEC3A DNA Deaminase Inhibitors via a fluorescence-based single-stranded DNA deaminase assay. [Related pubchem assays (depositor defined):AID493011, AID493024]. The class given is functional.
Assay [10] addresses DNA dC->dU-editing enzyme APOBEC-3G (Homo sapiens, UniProt Q9HC16). It counts as functional.

A word on the IC50: it is the point on the concentration scale where inhibition reaches its midpoint.

Chain of DNA dC->dU-editing enzyme APOBEC-3G (Q9HC16 whole entry): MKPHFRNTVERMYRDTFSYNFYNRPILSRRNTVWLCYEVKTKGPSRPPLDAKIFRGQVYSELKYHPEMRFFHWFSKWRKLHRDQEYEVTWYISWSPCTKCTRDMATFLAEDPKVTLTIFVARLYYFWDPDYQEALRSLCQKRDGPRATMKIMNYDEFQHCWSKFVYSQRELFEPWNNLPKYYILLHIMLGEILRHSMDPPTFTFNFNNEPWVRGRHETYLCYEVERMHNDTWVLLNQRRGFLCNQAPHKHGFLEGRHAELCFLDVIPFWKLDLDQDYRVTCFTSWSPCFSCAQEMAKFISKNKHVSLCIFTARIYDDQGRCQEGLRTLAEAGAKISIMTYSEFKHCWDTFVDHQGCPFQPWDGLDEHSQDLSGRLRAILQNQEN
Chain of Intestinal-type alkaline phosphatase (Homo sapiens, UniProt P09923) (P09923 whole entry): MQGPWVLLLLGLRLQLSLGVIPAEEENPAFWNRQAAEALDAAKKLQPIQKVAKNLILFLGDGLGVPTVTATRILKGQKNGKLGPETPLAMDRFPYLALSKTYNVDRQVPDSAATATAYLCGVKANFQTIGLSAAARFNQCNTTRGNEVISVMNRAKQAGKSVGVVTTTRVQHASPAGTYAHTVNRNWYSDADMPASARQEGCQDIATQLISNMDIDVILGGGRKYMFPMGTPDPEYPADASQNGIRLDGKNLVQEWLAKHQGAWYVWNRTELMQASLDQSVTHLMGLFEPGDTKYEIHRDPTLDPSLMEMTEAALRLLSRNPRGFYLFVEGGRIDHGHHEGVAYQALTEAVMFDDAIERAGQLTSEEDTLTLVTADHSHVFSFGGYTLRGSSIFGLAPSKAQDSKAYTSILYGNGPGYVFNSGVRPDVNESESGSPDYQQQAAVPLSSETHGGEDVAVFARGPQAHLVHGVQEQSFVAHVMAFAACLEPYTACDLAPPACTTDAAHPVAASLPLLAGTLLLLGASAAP
Chain of DNA dC->dU-editing enzyme APOBEC-3A (P31941 whole entry): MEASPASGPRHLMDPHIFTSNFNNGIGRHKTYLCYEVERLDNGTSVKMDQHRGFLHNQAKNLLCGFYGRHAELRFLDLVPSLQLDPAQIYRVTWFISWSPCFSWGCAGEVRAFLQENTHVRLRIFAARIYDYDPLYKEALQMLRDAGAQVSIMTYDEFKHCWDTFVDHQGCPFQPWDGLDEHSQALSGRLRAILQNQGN
Chain of Glyceraldehyde-3-phosphate dehydrogenase (P04406 whole entry): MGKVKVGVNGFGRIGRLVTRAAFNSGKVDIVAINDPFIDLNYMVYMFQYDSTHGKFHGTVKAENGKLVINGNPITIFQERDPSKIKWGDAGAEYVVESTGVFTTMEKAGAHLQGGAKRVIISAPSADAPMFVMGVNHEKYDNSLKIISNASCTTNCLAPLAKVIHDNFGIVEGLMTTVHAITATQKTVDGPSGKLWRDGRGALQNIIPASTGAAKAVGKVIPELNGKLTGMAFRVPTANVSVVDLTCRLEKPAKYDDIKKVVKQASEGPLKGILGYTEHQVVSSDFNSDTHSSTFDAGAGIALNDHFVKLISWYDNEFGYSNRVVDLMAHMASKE
Chain of Exodeoxyribonuclease V (P04993 whole entry): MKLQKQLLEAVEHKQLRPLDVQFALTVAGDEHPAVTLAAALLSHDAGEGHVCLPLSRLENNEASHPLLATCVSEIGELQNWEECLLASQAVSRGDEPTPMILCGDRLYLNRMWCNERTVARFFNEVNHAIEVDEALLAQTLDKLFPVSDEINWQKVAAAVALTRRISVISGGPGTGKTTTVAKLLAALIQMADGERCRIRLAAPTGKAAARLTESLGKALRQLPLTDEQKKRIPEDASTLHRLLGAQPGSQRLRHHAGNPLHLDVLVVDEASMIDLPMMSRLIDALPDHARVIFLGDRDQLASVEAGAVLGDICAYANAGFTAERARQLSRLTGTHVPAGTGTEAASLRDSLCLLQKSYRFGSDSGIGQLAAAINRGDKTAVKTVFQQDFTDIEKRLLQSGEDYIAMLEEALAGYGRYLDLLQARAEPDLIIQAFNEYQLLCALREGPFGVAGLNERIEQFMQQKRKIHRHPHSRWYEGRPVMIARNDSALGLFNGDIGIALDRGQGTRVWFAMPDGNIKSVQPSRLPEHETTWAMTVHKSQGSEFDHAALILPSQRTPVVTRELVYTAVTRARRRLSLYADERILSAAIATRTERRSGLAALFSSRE
Chain of Exodeoxyribonuclease V (P07648 whole entry): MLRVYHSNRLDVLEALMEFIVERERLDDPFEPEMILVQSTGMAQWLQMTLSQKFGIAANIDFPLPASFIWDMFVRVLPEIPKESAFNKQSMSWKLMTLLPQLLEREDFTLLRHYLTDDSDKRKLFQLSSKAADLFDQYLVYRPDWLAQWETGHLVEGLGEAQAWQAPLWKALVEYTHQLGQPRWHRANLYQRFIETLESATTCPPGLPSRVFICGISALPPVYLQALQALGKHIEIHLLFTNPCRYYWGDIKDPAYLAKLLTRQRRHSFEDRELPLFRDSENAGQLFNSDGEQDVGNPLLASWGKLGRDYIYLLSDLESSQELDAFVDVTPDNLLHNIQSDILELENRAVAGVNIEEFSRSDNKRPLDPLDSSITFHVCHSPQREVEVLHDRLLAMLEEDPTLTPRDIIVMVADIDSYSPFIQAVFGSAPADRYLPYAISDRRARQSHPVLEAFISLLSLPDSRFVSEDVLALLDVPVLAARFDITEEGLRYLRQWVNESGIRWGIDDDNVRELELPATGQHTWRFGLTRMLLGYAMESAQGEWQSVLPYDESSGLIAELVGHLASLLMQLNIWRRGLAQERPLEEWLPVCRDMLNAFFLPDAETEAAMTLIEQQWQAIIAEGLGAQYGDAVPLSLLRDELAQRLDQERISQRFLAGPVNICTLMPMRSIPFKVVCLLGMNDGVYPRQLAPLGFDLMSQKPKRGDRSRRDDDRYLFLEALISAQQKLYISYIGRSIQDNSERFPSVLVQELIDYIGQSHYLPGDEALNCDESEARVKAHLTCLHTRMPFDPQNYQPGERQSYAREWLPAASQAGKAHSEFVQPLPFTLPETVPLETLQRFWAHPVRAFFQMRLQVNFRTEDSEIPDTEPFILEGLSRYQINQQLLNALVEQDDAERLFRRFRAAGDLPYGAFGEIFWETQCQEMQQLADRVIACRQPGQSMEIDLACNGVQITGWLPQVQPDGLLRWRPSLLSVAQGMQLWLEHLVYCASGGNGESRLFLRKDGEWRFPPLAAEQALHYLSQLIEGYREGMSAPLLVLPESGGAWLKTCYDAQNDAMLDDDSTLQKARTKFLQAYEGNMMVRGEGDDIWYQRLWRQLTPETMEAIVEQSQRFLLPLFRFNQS
Chain of Exodeoxyribonuclease V (P08394 whole entry): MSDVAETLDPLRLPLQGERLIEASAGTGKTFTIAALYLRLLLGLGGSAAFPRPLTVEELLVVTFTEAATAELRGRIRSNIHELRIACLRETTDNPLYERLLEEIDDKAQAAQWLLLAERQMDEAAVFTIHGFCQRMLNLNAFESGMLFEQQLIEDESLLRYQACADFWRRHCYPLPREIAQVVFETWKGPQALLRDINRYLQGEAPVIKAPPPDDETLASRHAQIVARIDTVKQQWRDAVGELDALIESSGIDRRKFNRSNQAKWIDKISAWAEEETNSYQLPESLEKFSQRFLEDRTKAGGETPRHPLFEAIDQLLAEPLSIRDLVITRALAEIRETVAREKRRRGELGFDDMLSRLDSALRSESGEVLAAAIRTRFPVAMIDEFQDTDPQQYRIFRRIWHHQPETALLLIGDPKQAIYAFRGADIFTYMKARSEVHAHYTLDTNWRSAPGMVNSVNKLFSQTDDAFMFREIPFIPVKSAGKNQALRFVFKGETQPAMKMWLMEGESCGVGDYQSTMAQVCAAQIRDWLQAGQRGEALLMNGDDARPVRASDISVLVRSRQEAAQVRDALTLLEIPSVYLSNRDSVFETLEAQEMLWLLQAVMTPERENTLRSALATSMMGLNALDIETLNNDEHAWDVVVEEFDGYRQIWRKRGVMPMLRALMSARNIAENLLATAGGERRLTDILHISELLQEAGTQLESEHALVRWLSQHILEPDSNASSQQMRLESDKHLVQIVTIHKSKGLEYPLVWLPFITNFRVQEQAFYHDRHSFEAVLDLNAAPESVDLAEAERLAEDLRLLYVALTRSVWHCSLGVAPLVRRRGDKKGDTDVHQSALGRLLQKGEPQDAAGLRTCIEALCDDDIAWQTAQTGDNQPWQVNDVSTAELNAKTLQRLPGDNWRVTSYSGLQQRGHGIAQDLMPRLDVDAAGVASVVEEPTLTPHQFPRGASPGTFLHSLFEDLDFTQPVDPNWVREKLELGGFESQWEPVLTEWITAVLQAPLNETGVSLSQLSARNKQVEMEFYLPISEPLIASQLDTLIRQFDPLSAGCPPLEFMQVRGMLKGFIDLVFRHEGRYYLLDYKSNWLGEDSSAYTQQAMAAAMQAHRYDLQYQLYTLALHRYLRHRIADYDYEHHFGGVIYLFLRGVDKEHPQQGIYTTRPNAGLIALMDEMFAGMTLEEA
Chain of Intestinal-type alkaline phosphatase (Mus musculus, UniProt P24822) (P24822 whole entry): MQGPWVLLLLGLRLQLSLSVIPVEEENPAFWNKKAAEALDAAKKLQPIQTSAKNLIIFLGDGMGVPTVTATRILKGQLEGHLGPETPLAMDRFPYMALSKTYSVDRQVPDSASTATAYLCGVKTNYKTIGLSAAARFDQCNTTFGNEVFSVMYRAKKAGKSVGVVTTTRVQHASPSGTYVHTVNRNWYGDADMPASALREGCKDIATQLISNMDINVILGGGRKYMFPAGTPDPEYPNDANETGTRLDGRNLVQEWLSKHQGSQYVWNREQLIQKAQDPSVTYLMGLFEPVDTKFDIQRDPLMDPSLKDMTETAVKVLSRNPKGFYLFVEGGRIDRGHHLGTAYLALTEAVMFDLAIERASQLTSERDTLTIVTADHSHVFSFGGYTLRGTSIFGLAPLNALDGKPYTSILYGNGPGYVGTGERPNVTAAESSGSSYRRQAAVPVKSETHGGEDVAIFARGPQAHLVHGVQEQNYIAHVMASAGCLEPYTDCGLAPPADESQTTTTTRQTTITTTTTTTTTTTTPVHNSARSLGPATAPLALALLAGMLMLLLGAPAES

Consider `Cc1ccc(NC(=O)C[n+]2ccn(C3=C([O-])c4ccccc4C3=O)c2)cc1`, for which the results for the IC50 (at Bcl-2-related protein A1; in [1]; in assay [2]) were > 20 µM (inactive), 9.72 µM (active) and 14.4 µM (active), respectively.
In the case of `CC(=O)Nc1ccc2nc(NC(=O)c3ccc([N+](=O)[O-])o3)sc2c1`, the IC50 (on Exodeoxyribonuclease V; in assay [3]) was > 119 µM (inactive) each time.
With `O=S(=O)(Nc1ccc2ccccc2c1)c1ccc(Br)cc1OC(F)(F)F`, the figures for the IC50 in assay [4] and in assay [5] were > 10 µM (inconclusive) and > 10 µM (inactive), respectively.
For `COc1ccc(Cl)cc1NC(=S)NCCC(c1ccccc1)c1ccccc1`, the IC50 in assay [6] is 11.3 µM (active); in assay [7], 23.9 µM (active); in assay [8], 15.9 µM (active).
As to `CC1=CC(C)(C)[N+](C)=CN1c1ccccc1`, the IC50 is 2.19 µM (active) in [9] and 4.28 µM (active) in assay [10].
